This is an account of results in patent US4219550A, “Cis- and trans- octahydropyridopyrrolobenzheterocycles” (E. I. Du Pont de Nemours and Company, priority 1978, dated 1980).

Usually ED50 stands for the midpoint of the dose-response relation.

Test [1] deals with tetrabenazine-induced sedation and depression. In words: Mouse tetrabenazine (TBZ) antagonism (ptosis and exploratory activity). It is filed as in vivo, Carworth CF1 S female mice. The method, then:
This mouse test is predictive of human antidepressant response (Everett, "The Dopa Response Potentiation Test and Its Use in Screening for Antidepressant Drugs", pp 164 in "Antidepressant Drugs" [Proceedings of the First International Symposium], S. Garattini and M. N. G. Dukes, eds., 1967).
Groups of 10 Carworth CF1 S female mice, 18-21 g each, were fasted 1.5 hours and were intubated with antagonist compounds at oral doses of 0, 0.33, 1, 3, 9, 27 and 81 mg/kg in 0.20 ml of 1% Methocel®. The mice were challenged 30 minutes later with tetrabenazine (as the methane-sulfonate), 32 mg/kg intraperitoneally (dissolved in 0.20 ml 0.05 M KCl at pH 2.0). One hour after antagonist (30 minutes after tetrabenazine), the mice were examined for signs of exploratory activity and ptosis (eyelid closure). Normal exploratory activity (relief from sedation) was recorded when a mouse lifted by the tail from a group of 10 in a testing box and placed on a stainless steel testing box lid (12.5"×8" with 0.33" mesh) either turned its head horizontally 30° in both directions or moved to the edge of the screen within 10 seconds after being placed on the screen. Relief from ptosis was recorded when exactly two seconds after placing the mouse facing the observer, lid closure was less than 50% in both eyes.

Test [2] concerns conditioned avoidance response. Put plainly: Rat conditioned avoidance response (CAR). It is filed as in vivo, male Holtzman rats. The method, then:
The tranquilizing activity of the compounds of this invention is evidenced by tests conducted in male white rats in which a conditioned avoidance response is interrupted following an oral dose of the drug. This test is predictive of human response to an antipsychotic (tranquilizing) drug. The method of Clark was used (Clark, R., Psychon. Sci. 6, 11, 1966).
The test animals, male Holtzman rats between 90 and 115 grams, were food deprived 18 hours prior to avoidance training. Test drugs were suspended in 0.5% Methocel.
The equipment consisted of a plexiglas pit 5"×5"×9" fitted with a metal floor grid which can be electrified via the output of a shock generator. The top end of the pit opened into a surrounding platform 12"×3-1/2" on all four sides. This pit fitted into a larger plexiglas housing which served both to support the pit and to distribute wires to (a) the electrified floor grid, (b) a sound speaker used for stimulus presentation and (c) a 40 watt incandescent bulb also used for stimulus presentation. The main housing was separate from but attached to a metal frame which supported a noise generator, shock generator, and timing/sequence device. The noise generator was a Grason-Stadler Model 1724, used in the 50 KHz bandwidth with output of -10DB. The two-line shock generator supplied a constant A/C current of 0.19 milliamperes, via constantly scrambled 10 HZ square wave output.
The rats were trained by giving each of them four successive trials 15 to 20 minutes apart with a conditioned stimulus (CS) of a 40-watt incandescent bulb and a white noise plus an unconditioned stimulus (US) of a 0.19 milliampere scrambled shock. Following the four CS+US trials each animal was given an avoidance learning criterion trial in which the CS was presented alone 10 seconds prior to the US.
Rats were dosed orally with compound of the invention or standard drug, 20 rats/dose. Each rat was tested at 60, 120 and 240 minutes after drug.

The subject of test [3] is tetrabenazine-induced sedation and depression. Put plainly: Mouse tetrabenazine (TBZ) antagonism (ptosis and exploratory activity). The following applies: 30 mg/kg, footnote mark stands under PTOSIS. It counts as in vivo, Carworth CF1 S female mice.
[4] abbreviates: po, 1 h, read-out: ED50 TBZ ANTAG. EXPLOR.
[5] abbreviates: po, 1 h, read-out: ED50 TBZ ANTAG. PTOSIS.

Counter-ions that a name gives are not always drawn. Like-named read-outs stand apart in the source and are kept apart here. Bounds are passed on as bounds.

On to `CN(C)CCC=C1c2ccccc2CCc2ccccc21` [Amitriptyline · HCl, Amitriptyline, reference compound], for which the ED50 in test [1] (oral antagonist, tetrabenazine 32 mg/kg i.p. 30 min later, examined 1 h after antagonist, exploratory activity (relief from sedation), read-out: ED50 TBZ ANTAG. EXPLOR.) was found to be 4.3 mg/kg; in test [1] (oral antagonist, tetrabenazine 32 mg/kg i.p. 30 min later, examined 1 h after antagonist, relief from ptosis, read-out: ED50 TBZ ANTAG. PTOSIS) it was 1.6 mg/kg; in test [2] (oral, 20 rats/dose, tested at 60, 120 and 240 min, avoidance, read-out: ED50 CAR AVOID.), 116 mg/kg.

Consider `CC(C)N1CC[C@H]2[C@@H](C1)c1cccc3c1N2CCS3` (relative stereo) [Example 11], for which the 50% effective dose (ED50) in test [1] (setting [4]) is 14 mg/kg; in test [1] (setting [5]), 11 mg/kg; in test [2] (po, read-out: ED50 CAR AVOID.), 5.5 mg/kg.

In the case of `CC1CN2c3c(cccc3[C@@H]3CNCC[C@@H]32)S1` (stereo partly drawn) [Example 10], the ED50 is 27 mg/kg in test [1] (setting [4]); 23 mg/kg in test [1] (setting [5]); 8.5 mg/kg in test [2] (po, read-out: ED50 CAR AVOID.); around 38 mg/kg in test [2] (po, read-out: ED50 CAR ESCAPE).

Regarding `CCN1CC[C@@H]2[C@@H](C1)c1cccc3c1N2CCS3` [Example 16, (+)-trans-8-Ethyl-1,2,6b, 7,8,9,10,10a-octahydropyrido[3',4':4,5]pyrrolo[1,2,3-de][1,4]benzothiazine], the ED50 in test [1] (setting [4]) was determined as 10.8 mg/kg; in test [1] (setting [5]), 7.5 mg/kg; in test [2] (po, read-out: ED50 CAR AVOID.), 6.2 mg/kg.

With `c1cc2c3c(c1)[C@@H]1CNCC[C@@H]1N3CCCS2` (relative stereo) [Example 8], the “TBZ ANTAG. activity, subcutaneous (footnote *)” value in test [3] is listed as “active subcutaneously at 30 mg/kg”.

In the case of `CN1CC[C@H]2[C@H](C1)c1cccc3c1N2CCS3` (relative stereo) [Example 18], the ED50 in test [1] (setting [4]) came out at 6.5 mg/kg; in test [1] (setting [5]), 6.5 mg/kg; in test [2] (po, read-out: ED50 CAR AVOID.) it was 28 mg/kg.

For the molecule `c1cc2c3c(c1)[C@@H]1CN(C4CC4)CC[C@@H]1N3CCCS2` (relative stereo) [Example 9], the median effective dose (ED50) in test [1] (setting [4]) and in test [1] (setting [5]) was 68 mg/kg in each case.

Take `CCCCN1CC[C@H]2[C@@H](C1)c1cccc3c1N2CCS3` (relative stereo) [CH2, S, n-C4H9, H, cis]: the ED50 was 14 mg/kg in test [1] (setting [4]); 11 mg/kg in test [1] (setting [5]); 5.5 mg/kg in test [2] (po, read-out: ED50 CAR AVOID.).

As for `c1cc2c3c(c1)[C@@H]1CNCC[C@@H]1N3CCCO2` (relative stereo) [Example 4], the ED50 is 47 mg/kg in test [1] (setting [4]); 1.6 mg/kg in test [1] (setting [5]); 2.2 mg/kg in test [2] (po, read-out: ED50 CAR AVOID.); 14 mg/kg in test [2] (po, read-out: ED50 CAR ESCAPE).

On to `c1cc2c3c(c1)[C@@H]1CNCC[C@@H]1N3CCO2` (relative stereo) [Example 1, (+)-cis-1,2,6b,7,8,9,10,10a-Octahydropyrido[3', 4': 4,5]pyrrolo[1,2,3,-de][1,4]benzoxazine], for which the ED50 in test [1] (setting [4]) was 23 mg/kg; in test [1] (setting [5]), 1.4 mg/kg; in test [2] (po, read-out: ED50 CAR AVOID.) it was 2.2 mg/kg; in test [2] (po, read-out: ED50 CAR ESCAPE), above 25 mg/kg.

On to `CN1CC[C@H]2[C@@H](C1)c1cccc3c1N2CCS3` (relative stereo) [Example 6], for which the ED50 in test [1] (setting [4]) is above 81 mg/kg; in test [1] (setting [5]), 7.2 mg/kg; in test [2] (po, read-out: ED50 CAR AVOID.) it was 17 mg/kg.

On to `c1cc2c3c(c1)[C@@H]1CNCC[C@@H]1N3CCCS2` (relative stereo) [Example 8a], for which the ED50 in test [1] (setting [4]) came out at 54 mg/kg; in test [1] (setting [5]), 6.6 mg/kg; in test [2] (po, read-out: ED50 CAR AVOID.) it was 2.2 mg/kg.

As to `c1cc2c3c(c1)[C@H]1CN(C4CC4)CC[C@@H]1N3CCO2` (relative stereo) [Example 17], the ED50 in test [1] (setting [4]) was 11.2 mg/kg; in test [1] (setting [5]), 7.5 mg/kg.

As to `c1cc2c3c(c1)[C@@H]1CN(C4CC4)CC[C@@H]1N3CCO2` (relative stereo) [Example 3], the ED50 in test [1] (setting [4]) amounted to 24 mg/kg; in test [1] (setting [5]), 21 mg/kg; in test [2] (po, read-out: ED50 CAR AVOID.), 28 mg/kg.

For the molecule `c1cc2c3c(c1)[C@@H]1CN(C4CC4)CC[C@@H]1N3CCS2` (relative stereo) [Example 7], the ED50 in test [1] (setting [4]) was 3.3 mg/kg; in test [1] (setting [5]), 1.1 mg/kg.

Turning to `Clc1ccc2c3c1[C@@H]1CNCC[C@@H]1N3CCO2` (relative stereo) [Example 2], the ED50 in test [1] (setting [4]) is 27 mg/kg; in test [1] (setting [5]), 4.3 mg/kg; in test [2] (po, read-out: ED50 CAR AVOID.), around 23 mg/kg; in test [2] (po, read-out: ED50 CAR ESCAPE), above 50 mg/kg.

Consider `CN(C)CCCN1c2ccccc2Sc2ccc(Cl)cc21` [Chlorpromazine · HCl, Chlorpromazine, reference compound], for which the ED50 is above 81 mg/kg in test [1] (setting [4]); above 81 mg/kg in test [1] (setting [5]); 5.4 mg/kg in test [2] (po, read-out: ED50 CAR AVOID.); around 34 mg/kg in test [2] (po, read-out: ED50 CAR ESCAPE).

Turning to `c1cc2c3c(c1)[C@@H]1CNCC[C@@H]1N3CCS2` (relative stereo) [Example 5], the ED50 in test [1] (setting [4]) was determined as 0.4 mg/kg; in test [1] (setting [5]), 3.3 mg/kg; in test [2] (po, read-out: ED50 CAR AVOID.), 1.1 mg/kg.
